{"source": "patent US12012597B2", "about": "“Cancer treatment using siRNA to modulate expression of PRDM2/RIZ protein” (ARIZ Precision Medicine, Inc., priority 2020, dated 2024)", "key": {"A549 lung cancer cells": {"test_system": "A549 lung cancer cells", "test": "MTS cell viability assay after siRNA transfection", "type": "cell-based, human", "settings": "100 nM siRNA; for Viability of the A549 lung cancer cells (change): DharmaFECT 1, after four days, FIG. 2; for relative cell viability: single exposure, after four days, relative to untreated cells"}, "RIZ1 mRNA [1]": {"test_system": "RIZ1 mRNA", "test": "RIZ1 mRNA level in HCT116 cells after siRNA", "type": "cell-based, human", "settings": "FIG. 5", "experimental": "(§1) RIZ1 and RIZ2 mRNA levels were determined in control and siRNA-transfected cells using qPCR. RNA was extracted from cells 48 hours after transfection, and mRNA expression levels were detected using PRDM isoform A and PRDM isoform C specific PCR primers. RIZ mRNA expression levels were determined relative to GAPDH mRNA expression levels. Scrambled siRNA was used a negative control, and Tox (Transfection control siRNA, commercially available) was used a positive control."}, "RIZ2 mRNA [2]": {"test_system": "RIZ2 mRNA", "test": "RIZ2 mRNA level in HCT116 cells after siRNA", "type": "cell-based, human", "settings": "FIG. 5", "experimental": "as §1"}, "RIZ2 mRNA [3]": {"test_system": "RIZ2 mRNA", "test": "qPCR of RIZ2 mRNA in siRNA-transfected A549 cells", "type": "cell-based, human", "experimental": "as §1"}, "RIZ1 mRNA [4]": {"test_system": "RIZ1 mRNA", "test": "qPCR of RIZ1 mRNA in siRNA-transfected A549 cells", "type": "cell-based, human", "settings": "qPCR relative to GAPDH mRNA", "experimental": "as §1"}, "[5]": {"test_system": "KMS-11 multiple myeloma cell line", "test": "Viability of multiple myeloma cells after siRNA", "type": "cell-based", "settings": "comparable to the Tox positive control, FIG. 8", "source_text": "In this example, the effect of siRNA ARIZ-011 was further tested on a multiple myeloma cell line, KMS-11. KMS-11 cell line was obtained from commercially available sources, and was originally derived from […] multiple myeloma patient's cells. These cells have characteristics of plasma cells."}, "[6]": {"test_system": "HCT116 colon cancer cells", "test": "Cell viability after siRNA transfection with or without 5-fluorouracil", "settings": "5-fluorouracil 25 μM added one day after transfection, after four days, relative to untreated cells, FIG. 4", "method": "Where indicated, 5-fluorouracil (25 μM) was added one day after transfection. Media (with 5-flurouracil where indicated) was changed after two days, and after four days, percent cell viability was determined, relative to untreated cells."}}, "note": "“Also recorded” adds a separate entry of the source. d = 2'-deoxy (DNA); r = 2'-OH (RNA)", "data": [{"compound": "ARIZ-015: Double-stranded siRNA, sense SEQ ID NO: 5, antisense SEQ ID NO: 15, complementary to last 19 bases at 3′ end of RIZ2 mRNA (sense GGACUUCAGGAACUUCCUGTT; antisense CAGGAAGUUCCUGAAGUCCTT; sugars from the 5' end r19 d2, backbone and T or U not given here)", "values": [{"measurement": "Viability of the A549 lung cancer cells (change)", "setting": "A549 lung cancer cells", "value": "decreased"}, {"measurement": "relative cell viability", "setting": "A549 lung cancer cells", "value": 70, "unit": "%"}]}, {"compound": "ARIZ-012: Double-stranded siRNA, sense SEQ ID NO: 2, antisense SEQ ID NO: 12, complementary to sequences shared by RIZ1 and RIZ2 mRNA (sense GUGUAGUGCUGUAAAGAAATT; antisense UUUCUUUACAGCACUACACTT; sugars from the 5' end r19 d2, backbone and T or U not given here)", "values": [{"measurement": "Viability of the A549 lung cancer cells (change)", "setting": "A549 lung cancer cells", "value": "decreased"}]}, {"compound": "ARIZ-011: Unmodified double-stranded siRNA, sense SEQ ID NO: 1, antisense SEQ ID NO: 10, complementary to both RIZ1 and RIZ2 mRNA (sense GGGAGAGAUGAGAGAGAAATT; antisense UUUCUCUCUCAUCUCUCCCTT; RNA, all phosphodiester, T or U not given here)", "values": [{"measurement": "RIZ1 mRNA (change)", "setting": "RIZ1 mRNA [1]", "value": "concurrent increase"}, {"measurement": "expression level of RIZ2 (change)", "setting": "RIZ2 mRNA [2]", "value": "selectively decreased"}, {"measurement": "decrease in RIZ2 mRNA", "setting": "RIZ2 mRNA [3]; 48 hours after transfection, relative to GAPDH mRNA, FIG. 3", "value": "~75", "unit": "%"}, {"measurement": "RIZ2 mRNA level (change)", "setting": "RIZ2 mRNA [3]; qPCR relative to GAPDH mRNA", "value": "knockdown"}, {"measurement": "Viability of the A549 lung cancer cells (change)", "setting": "A549 lung cancer cells", "value": "decreased"}, {"measurement": "relative cell viability", "setting": "A549 lung cancer cells", "value": 30, "unit": "%"}, {"measurement": "RIZ1 mRNA level (change)", "setting": "RIZ1 mRNA [4]", "value": "simultaneous increase in RIZ1 mRNA; also recorded: upregulated expression"}, {"measurement": "KMS-11 cell death in culture", "setting": "[5]", "value": "about 80%"}]}, {"compound": "O=c1[nH]cc(F)c(=O)[nH]1", "note": "[5-fluorouracil]", "values": [{"measurement": "cytotoxicity at 25 µM", "setting": "[6]; Homo sapiens, HCT-116, read-out: decreased cell viability (killing) of HCT116 colon cancer cells, siRNA 100 nM", "value": "72 to 74", "unit": "%"}, {"measurement": "decreased cell viability (killing) of HCT116 colon cancer cells", "setting": "[6]; siRNA 100 nM", "value": 72, "unit": "%"}]}]}
